In series [1] the target is T1, NaV1.5 (Homo sapiens, UniProt Q14524). The series is classed as cell-based, mammalian.
Series [2] deals with T2, NaV1.1 (Homo sapiens, UniProt P35498). As to the kind of experiment: Two-electrode voltage clamp in Xenopus oocytes, NaV1.1 modulation / concentration-response. The series is classed as cell-based, mammalian. The following applies: NaV1.1, 1 µM.
The subject of a further series is NaV1.2. As to the kind of experiment: Two-electrode voltage clamp in Xenopus oocytes, NaV1.2 modulation. It is filed as cell-based, mammalian.
The next series deals with NaV1.3. As to the kind of experiment: Two-electrode voltage clamp in Xenopus oocytes, NaV1.3 modulation. It is filed as cell-based, mammalian.
For another series, the system named is NaV1.4. As to the kind of experiment: Two-electrode voltage clamp in Xenopus oocytes, NaV1.4 modulation. It is filed as cell-based, mammalian. For orientation: Two-electrode voltage clamp holds a large cell at a set potential and records current.
The target in series [3] is T1, NaV1.5. As to the kind of experiment: Two-electrode voltage clamp in Xenopus oocytes, NaV1.5 modulation / concentration-response. It is filed as cell-based, mammalian. As to conditions: NaV1.5, 1 µM.
A further series has as its system NaV1.6. As to the kind of experiment: Two-electrode voltage clamp in Xenopus oocytes, NaV1.6 modulation. It is filed as cell-based, mammalian.
In series [4] the target is T3, NaV1.8 (Homo sapiens, UniProt Q9Y5Y9). The series is described as follows: Two-electrode voltage clamp in Xenopus oocytes, NaV1.8 modulation / concentration-response. It is filed as cell-based, mammalian. As to conditions: NaV1.8, 1 μM.
Series [5] concerns BgNaV1. As to the kind of experiment: Two-electrode voltage clamp in Xenopus oocytes, BgNaV1 modulation / concentration-response. It is filed as cell-based, Blattella germanica.
A further series concerns VdNaV1. As to the kind of experiment: Two-electrode voltage clamp in Xenopus oocytes, VdNaV1 modulation / concentration-response. The series is classed as cell-based, Varroa destructor.
For series [6], the target named is T2, NaV1.1. As to the kind of experiment: Voltage dependence of activation and steady-state inactivation, NaV1.1. It is filed as cell-based, mammalian. As to conditions: NaV1.1, 1 µM.
Series [7] deals with T1, NaV1.5. The series is described as follows: Current-voltage relationship, activation and steady-state inactivation, NaV1.5. It is filed as cell-based, mammalian.
For series [8], the target named is T3, NaV1.8. The series is described as follows: Voltage dependence of activation and steady-state inactivation, NaV1.8. It is filed as cell-based, mammalian.
For series [9], the system named is BgNaV1. The series is described as follows: Voltage dependence of activation and steady-state inactivation, BgNaV1. The series is classed as cell-based, Blattella germanica.
The target in series [10] is T1, NaV1.5. The series is described as follows: Recovery from inactivation, NaV1.5. It is filed as cell-based, mammalian. The following applies: NaV1.5, 1 µM.
Series [11] deals with BgNaV1. As to the kind of experiment: Recovery from fast inactivation, BgNaV1. The series is classed as cell-based, Blattella germanica. As to conditions: BgNaV1, 1 µM.
Series [12] concerns BgNaV1. As to the kind of experiment: State-dependence (toxin incubation without depolarizing pulses), BgNaV1. The series is classed as cell-based, Blattella germanica. As to conditions: BgNaV1, 1 µM.
In the next series the test system is NaV channels. As to the kind of experiment: NaV channel panel in Xenopus oocytes (ion selectivity, species selectivity). The series is classed as cell-based. The following applies: presence of toxin, ion selectivity not altered.
Another series has as its system mice. The following applies: cited from earlier work. From the text: Spiders can be considered one of the most successful venomous animals ever to inhabit the planet with over 47,000 species characterized to date. Despite this diversity, no more than 100 spider species have had their venom investigated. With over ten million estimated biologically active peptides in spider venoms, this means that less than 0.01% of spider peptides have been studied, making spider venom an untapped treasure of biologically active compounds with promising discoveries in drug and bioinsecticide development. Phoneutria nigriventer are very ...

The next series deals with PnTx2-6 binding site. As to conditions: ref [14]; cited from earlier work. From the text: PnTx2-1 shares the highest sequence identity with PnTx2-5 and PnTx2-6, which are also isolated from the Phoneutria nigriventer venom fraction 2 [13]. PnTx2-5 and PnTx2-6 are the best-characterized toxins from the PhTx2 venom fraction. These two toxins share 90% sequence identity, with only five amino acid residues different (Figure 1). […] Both peptides modulate sodium chann ...

Bridge positions count the residues as written; N and C are the ends. Ends that are not written are not given here.

T3 sequence (Q9Y5Y9 whole entry): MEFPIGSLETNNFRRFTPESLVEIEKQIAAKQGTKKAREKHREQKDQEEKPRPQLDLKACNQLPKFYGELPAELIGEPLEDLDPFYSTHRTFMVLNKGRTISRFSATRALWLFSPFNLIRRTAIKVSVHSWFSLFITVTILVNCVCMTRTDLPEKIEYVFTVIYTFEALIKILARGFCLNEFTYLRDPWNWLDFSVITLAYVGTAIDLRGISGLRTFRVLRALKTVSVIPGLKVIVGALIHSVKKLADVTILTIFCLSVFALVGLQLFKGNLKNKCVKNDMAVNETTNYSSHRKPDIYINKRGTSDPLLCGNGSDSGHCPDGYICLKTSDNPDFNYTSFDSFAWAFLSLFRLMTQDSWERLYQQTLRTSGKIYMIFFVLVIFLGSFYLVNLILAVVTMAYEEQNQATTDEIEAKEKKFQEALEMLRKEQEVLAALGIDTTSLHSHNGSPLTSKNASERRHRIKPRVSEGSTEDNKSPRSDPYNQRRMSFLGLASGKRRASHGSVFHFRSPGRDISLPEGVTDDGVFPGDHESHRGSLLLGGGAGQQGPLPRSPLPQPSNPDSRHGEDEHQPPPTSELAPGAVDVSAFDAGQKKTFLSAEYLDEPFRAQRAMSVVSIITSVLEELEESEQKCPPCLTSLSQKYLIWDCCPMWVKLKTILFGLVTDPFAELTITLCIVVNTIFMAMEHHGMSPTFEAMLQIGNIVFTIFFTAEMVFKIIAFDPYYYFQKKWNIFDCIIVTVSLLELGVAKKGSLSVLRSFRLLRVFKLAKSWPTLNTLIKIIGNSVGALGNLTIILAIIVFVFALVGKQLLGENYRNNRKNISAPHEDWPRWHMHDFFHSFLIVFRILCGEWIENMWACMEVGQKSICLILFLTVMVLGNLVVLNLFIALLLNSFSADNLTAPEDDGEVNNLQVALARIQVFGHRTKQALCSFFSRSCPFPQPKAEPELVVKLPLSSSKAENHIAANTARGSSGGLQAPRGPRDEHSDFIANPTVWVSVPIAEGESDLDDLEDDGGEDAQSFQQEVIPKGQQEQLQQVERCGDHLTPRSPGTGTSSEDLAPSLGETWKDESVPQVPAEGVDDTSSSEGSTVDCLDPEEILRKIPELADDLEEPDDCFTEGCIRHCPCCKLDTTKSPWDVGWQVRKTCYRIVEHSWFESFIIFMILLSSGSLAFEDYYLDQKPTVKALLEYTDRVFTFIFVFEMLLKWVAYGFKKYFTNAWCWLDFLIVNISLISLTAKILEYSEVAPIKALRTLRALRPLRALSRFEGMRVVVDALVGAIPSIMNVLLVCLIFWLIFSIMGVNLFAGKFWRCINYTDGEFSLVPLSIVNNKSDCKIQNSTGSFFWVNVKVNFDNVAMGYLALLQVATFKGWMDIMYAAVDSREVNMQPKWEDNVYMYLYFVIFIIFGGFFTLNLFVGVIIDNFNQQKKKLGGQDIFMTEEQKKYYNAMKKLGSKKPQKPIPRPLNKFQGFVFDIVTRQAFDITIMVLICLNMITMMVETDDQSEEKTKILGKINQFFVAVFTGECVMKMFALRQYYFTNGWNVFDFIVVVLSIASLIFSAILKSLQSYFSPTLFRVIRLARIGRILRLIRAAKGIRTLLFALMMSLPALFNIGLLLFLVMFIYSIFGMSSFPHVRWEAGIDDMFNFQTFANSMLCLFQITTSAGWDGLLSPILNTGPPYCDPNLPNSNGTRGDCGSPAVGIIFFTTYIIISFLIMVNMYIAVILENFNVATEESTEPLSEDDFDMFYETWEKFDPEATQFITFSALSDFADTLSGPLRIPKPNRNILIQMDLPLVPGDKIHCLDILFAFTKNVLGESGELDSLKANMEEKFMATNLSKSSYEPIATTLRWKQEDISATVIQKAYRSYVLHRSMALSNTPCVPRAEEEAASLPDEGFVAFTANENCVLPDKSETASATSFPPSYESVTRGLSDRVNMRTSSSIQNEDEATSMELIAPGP
T1 sequence (Q14524 whole entry, looked up): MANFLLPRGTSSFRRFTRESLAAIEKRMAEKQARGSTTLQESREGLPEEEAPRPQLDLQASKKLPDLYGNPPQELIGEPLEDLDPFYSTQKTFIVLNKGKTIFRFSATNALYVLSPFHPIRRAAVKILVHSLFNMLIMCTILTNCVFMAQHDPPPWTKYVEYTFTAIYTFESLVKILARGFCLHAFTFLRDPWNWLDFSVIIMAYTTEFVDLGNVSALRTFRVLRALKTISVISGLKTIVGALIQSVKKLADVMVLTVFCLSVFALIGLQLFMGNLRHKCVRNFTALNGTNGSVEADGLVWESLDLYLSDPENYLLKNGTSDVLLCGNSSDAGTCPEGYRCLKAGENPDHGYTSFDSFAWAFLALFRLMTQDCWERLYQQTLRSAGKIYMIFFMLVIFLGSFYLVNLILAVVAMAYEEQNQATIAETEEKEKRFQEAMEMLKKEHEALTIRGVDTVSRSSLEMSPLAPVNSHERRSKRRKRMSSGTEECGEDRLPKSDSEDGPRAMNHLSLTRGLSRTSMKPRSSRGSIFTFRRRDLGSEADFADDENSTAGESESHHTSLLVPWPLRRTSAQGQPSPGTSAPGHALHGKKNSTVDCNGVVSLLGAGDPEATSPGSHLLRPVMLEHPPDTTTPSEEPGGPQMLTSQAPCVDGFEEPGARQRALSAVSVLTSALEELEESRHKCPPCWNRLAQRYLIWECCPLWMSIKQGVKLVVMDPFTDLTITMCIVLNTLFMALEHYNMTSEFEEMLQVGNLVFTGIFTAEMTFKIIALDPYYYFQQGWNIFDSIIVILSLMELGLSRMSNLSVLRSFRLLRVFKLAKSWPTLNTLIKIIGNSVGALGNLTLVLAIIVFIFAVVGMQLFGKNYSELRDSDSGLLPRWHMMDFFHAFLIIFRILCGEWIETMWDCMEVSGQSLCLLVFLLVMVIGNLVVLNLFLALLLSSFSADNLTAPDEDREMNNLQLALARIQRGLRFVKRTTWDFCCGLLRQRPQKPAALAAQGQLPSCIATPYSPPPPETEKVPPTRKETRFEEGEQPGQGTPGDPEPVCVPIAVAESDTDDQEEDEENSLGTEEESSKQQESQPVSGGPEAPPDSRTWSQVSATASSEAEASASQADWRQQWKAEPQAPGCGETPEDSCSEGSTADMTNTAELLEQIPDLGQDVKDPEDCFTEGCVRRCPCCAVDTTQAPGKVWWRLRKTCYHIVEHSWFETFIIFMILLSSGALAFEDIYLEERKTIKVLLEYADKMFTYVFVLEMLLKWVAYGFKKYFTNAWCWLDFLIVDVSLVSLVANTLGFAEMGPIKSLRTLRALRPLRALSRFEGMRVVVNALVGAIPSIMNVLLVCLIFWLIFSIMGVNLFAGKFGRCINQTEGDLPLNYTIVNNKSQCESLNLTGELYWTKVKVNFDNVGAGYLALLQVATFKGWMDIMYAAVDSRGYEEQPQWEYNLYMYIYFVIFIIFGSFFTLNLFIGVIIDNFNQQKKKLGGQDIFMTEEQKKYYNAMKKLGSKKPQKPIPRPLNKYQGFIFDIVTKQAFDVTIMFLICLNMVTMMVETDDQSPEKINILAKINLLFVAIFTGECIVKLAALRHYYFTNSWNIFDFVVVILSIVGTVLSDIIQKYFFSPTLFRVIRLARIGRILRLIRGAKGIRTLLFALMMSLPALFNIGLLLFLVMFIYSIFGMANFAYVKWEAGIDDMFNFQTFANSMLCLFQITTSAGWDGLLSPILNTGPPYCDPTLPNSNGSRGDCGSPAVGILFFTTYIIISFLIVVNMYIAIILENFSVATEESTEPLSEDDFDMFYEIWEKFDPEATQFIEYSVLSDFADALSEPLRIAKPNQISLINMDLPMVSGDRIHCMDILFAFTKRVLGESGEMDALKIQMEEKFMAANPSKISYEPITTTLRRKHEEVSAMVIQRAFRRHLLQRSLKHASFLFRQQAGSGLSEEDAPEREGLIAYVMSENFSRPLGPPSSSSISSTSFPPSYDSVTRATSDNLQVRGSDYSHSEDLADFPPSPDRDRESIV

As to `NC1=N[C@H](O)[C@H]2[C@H]3O[C@]4(O)O[C@@H]([C@@H](O)[C@@]2(N1)[C@@H]4O)[C@]3(O)CO` [tetrodotoxin (TTX), tetrodotoxin, reference compound], at NaV1.5 [1], the “decrease of the sodium current peak amplitude” value worked out at 50%.
As for “ATCAGQDKPCKETCDCCGERGECVCALSYEGKYRCICRQGNFLIAWHKLASCK (disulfide 3-17, 10-23, 14-52, 16-37, 25-35) [PnTx2-1]”, the effect on inactivation result on NaV1.1 [2] was “slowed the inactivation”; at NaV1.5 [3], “slowed the inactivation”; on NaV1.8 [4], “slowed the inactivation”; in the series on BgNaV1 [5] (BgNaV1, 1 µM) it was “completely inhibited inactivation of BgNaV1 channels, resulting in sustained non-inactivating currents”; with VdNaV1 (VdNaV1, 1 μM) it was “profound effect on the inactivation”. In addition, the effect on channel result in the series on NaV1.2 (NaV1.2, 1 μM) is given as “not affected”; in the series with NaV1.3 (NaV1.3, 1 μM), “not affected”; in the series on NaV1.4 (NaV1.4, 1 μM), “not affected”; in the series on NaV1.6 (NaV1.6, 1 μM), “not affected”. Also, the activity on channel entry is “no activity” in the series on NaV1.2 (NaV1.2, up to 5 µM, data not shown); “no activity” in the series with NaV1.3 (NaV1.3, up to 5 µM, data not shown); “no activity” in the series on NaV1.4 (NaV1.4, up to 5 µM, data not shown); “no activity” in the series with NaV1.6 (NaV1.6, up to 5 µM, data not shown). Further, the EC50 – broadly, the concentration needed to bring the measured effect to its halfway point – was determined as 91.9 ± 17 nM in the series with BgNaV1 [5] (BgNaV1, modulation (current at 30 ms / control peak), Hill fit, Xenopus oocytes, ND96 pH 7.5, 18–22 °C, holding −90 mV, mean ± SEM, n ≥ 3) and 102 ± 14.7 nM in the series with VdNaV1 (VdNaV1, modulation (current at 30 ms / control peak), Hill fit, Xenopus oocytes, ND96 pH 7.5, 18–22 °C, holding −90 mV, mean ± SEM, n ≥ 3). Moreover, the “shift of midpoint of activation” value was “the midpoint of activation shifted towards more depolarized potentials” at NaV1.1 [6] and “the midpoint of activation shifted towards more depolarized potentials” at NaV1.5 [7] (NaV1.5, 1 µM). Moreover, the “shift of steady-state inactivation curve” value at NaV1.1 [6] is on record as “the steady-state inactivation curves shifted towards more hyperpolarized membrane potentials”; on NaV1.5 [7] (NaV1.5, 1 µM) it was “the steady-state inactivation curves shifted towards more hyperpolarized membrane potentials”. The “window of open probability” value at NaV1.1 [6] was “increased window of open probability”; on NaV1.5 [7] (NaV1.5, 1 µM), “increased window of open probability”. Further, the V1/2 of activation at NaV1.5 [7] (NaV1.5, 1 µM toxin, control −53.1 ± 0.1, mean ± SEM, n ≥ 3) is −45.3 ± 0.1 mV; at NaV1.8 [8] (NaV1.8, 1 µM toxin, control −11.5 ± 0.1, mean ± SEM, n ≥ 3) it was −11.4 ± 0.1 mV; in the series with BgNaV1 [9] (BgNaV1, 1 µM toxin, control −38.1 ± 0.1, mean ± SEM, n ≥ 3) it was −45.8 ± 0.3 mV. Moreover, on NaV1.5 [7] (NaV1.5, 1 µM toxin, control −78.4 ± 0.2, mean ± SEM, n ≥ 3), the “V1/2 of steady-state inactivation” value was −87.5 ± 0.7 mV. On NaV1.5 [7] (NaV1.5, Figure 2E, Figure 3B and Figure 5A), the “effect on sodium peak current” value was “inhibition of the sodium peak current”. Besides, at NaV1.8 [8] (NaV1.8, 1 μM), the “modulation of gating kinetics” value was “No relevant modulation of the gating kinetics”. Further, the “completeness of steady-state inactivation” value in the series on BgNaV1 [9] (BgNaV1, 1 µM) was “steady-state inactivation became incomplete after toxin addition”. Further, in the series with BgNaV1 [9] (BgNaV1, 1 µM), the “shift of activation midpoint and steady-state inactivation” value is “A shift in the midpoint of activation and in the voltage dependence of steady-state inactivation”. For the same compound, the “non-inactivating current component of steady-state inactivation” value in the series with BgNaV1 [9] (BgNaV1, 1 µM, mean ± SEM, n ≥ 3) was 62.3 ± 3.2%. Besides, the “recovery from inactivation” value at NaV1.5 [10] is “strongly enhanced the recovery from inactivation”. Besides, at NaV1.5 [10] (control τ = 50.2 ± 3.0 ms, mean ± SEM, n ≥ 3), the “recovery from inactivation, τ” value came out at 22.8 ± 3.2 ms. Also, the “recovery from fast inactivation” value with BgNaV1 [11] is recorded as “does not influence the recovery from fast inactivation”. Further, on NaV1.5 [1], the “binding at neurotoxin site 1” value is on record as “does not bind at site 1”. The “effect on peak amplitude after TTX” value on NaV1.5 [1] is listed as “additional reduction of the peak amplitude”. In addition, in the series with BgNaV1 [12] (2 min at −90 mV without depolarizing pulses, then pulse to 0 mV), the “slowing of inactivation after closed-state incubation” value is “significant slowing down of inactivation”. Besides, the toxin interaction state result in the series with BgNaV1 [12] (closed state) is reported as “toxin interaction with the channel in the closed state”. In addition, the reversal potential entry in the series with NaV channels is on record as “No significant change in the reversal potential”. Also, in the series on mice (injected, ref [12]), the signs after injection entry is “pruritus, lacrimation, increased salivation, sweating and agitation followed by spastic paralysis of the limbs”. In addition, the “toxicity after intracerebral injection” value in the series with mice (intracerebral (i.c.), among the nine PhTx2 peptides, ref [13]) is listed as “higher toxicity”.
As for “CssIV: β-scorpion toxin CssIV (from Centruroides suffusus suffusus)”, the “competition with PnTx2-6” value with PnTx2-6 binding site was “does not compete with PnTx2-6”.

Values taken from publication PMC6162791, “Phoneutria nigriventer Spider Toxin PnTx2-1 (δ-Ctenitoxin-Pn1a) Is a Modulator of Sodium Channel Gating” (Toxins, 2018).
